# In US10738028B2, “Spiro three-membered ring, spiro five-membered ring peptide deformylase inhibitor and use thereof in antibacteria and anti-tumor” (priority 2016, dated 2020):
# Where two headings read alike, the source gives them in different places.
# What was measured:
# [1] = MIC in vitro anti-bacterial experiments, Gram-positive bacteria; type: cell-based; conditions: read-out: minimum inhibitory concentration against Gram-positive bacteria
# Summary of the method: (§1)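 Susceptibility was tested using CLSI two-fold agar dilution against the strains examined.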
# [2] = system: methemoglobin in blood samples of three healthy volunteers; experiment: Toxicity on methemoglobin in vitro (whole blood with S9 and NADPH, absorbance at 630 nm); type: cell-based, human; conditions: for MetHb % (n = 3): 500 μM compound, whole blood + S9 + NADPH, 5 hours at 37° C.; for probability of methemoglobin formation in blood compared with the control drugs LBM415 and GSK1322322: toxicity test in vitro, in words
# Procedure: Because PDF inhibitors such as LBM415 and GSK1322322 can produce active species such as aromatic hydroxylamine and aromatic hydrazines in metabolic process, and cause human methemoglobinemia. To this end, continuous wavelength method was adopted in this invention to scan the absorption spectrum of blood samples in the wavelength range of 500 to 700 nm in the ultraviolet-visible spectrophotometer, and the contents of methemoglobin in blood samples of three healthy volunteers were calculated, after being effected by the synthesized compounds.
# Experimental materials: Nicotinamide adenine dinucleotide phosphate (NADPH) reduction system: glucose-6-disodium phosphate, nicotinamide adenine dinucleoside phosphate and glucose-6-phosphate dehydrogenase (purchased from Shanghai yuanye Bio-Technology Co., Ltd) were added to 1 mL of phosphate buffer solution (PBS, pH 7.4), and the mixture was shaked in a shaker type water bath at 37° C. for 10 min, and then cooled to 0° C. Mixed human hepatocytes fraction S9 was purchased from Xenotech (20 mg S9 protein/1 mL suspension medium). Compounds were prepared to stock solution at a concentration of 50 mM, which was stored at −20° C. for use. Dapsone was used as positive control experimental reagent, which was purchased from Sigma Aldrich. 1% w/v triton X-100 was self-prepared. Blood samples were collected using Vacutainer tubes containing EDTA anticoagulants (BD, Franklin Lakes, USA), which were sampled from three healthy volunteers and used immediately after sampling.
# Preparation of incubation system for blood samples and drugs: 250 μL of incubation system was consist of 220 μL of whole blood, 25 μL of S9 (final concentration: 2 mg S9 protein/mL incubation solution), 2.5 μL of NADPH form system (final concentration: 10 mM G-6-P, 1 mM NADP, 7.5 Units/mL) and 2.5 μL of stock solution of a compound (final concentration 500 μM). […] of incubation system was placed in an Eppendorf tube and incubated for 5 hours at 37° C. in water bath.
# Determination of the content of methemoglobin: 60 μL of an incubated sample was taken and lysed with 3.0 mL of 1% Triton X-100. The content of methemoglobin (MetHb) was measured by an ultraviolet-visible spectrophotometer, with the Triton X-100 solution used as blank control. A sample was placed in a cuvette, 1 minute later, the spectrums of the sample in the wavelength range from 500 nm to 700 nm were recorded. The sample was added with 2 mg of potassium ferricyanide, and was allowed to stay stationary for 2 minutes for completely oxidization of ferrous iron in the sample, and standard spectrum of methemoglobin with saturated potassium ferricyanide. The percentage of methemoglobin formation (MetHb %) was obtained by the ratio of absorbance at 630 nm. MetHb %=(A′−AB′)/AM′, wherein, A′ was the total absorbance of the sample at 630 nm, AB′ was the base absorbance of the reduced blood in the sample at 630 nm, and AM′ was the absorbance of oxidized blood with saturated potassium ferricyanide at 630 nm.
# [3] = system: methicillin-sensitive Staphylococcus epidermidis (MSSE); experiment: MIC, two-fold agar dilution (CLSI), clinical isolates; type: cell-based
# Summary of the method: as §1
# [4] = system: methicillin-resistant Staphylococcus aureus (MRSA); experiment: as above; type: cell-based
# Summary of the method: as §1
# [5] = system: methicillin-resistant Staphylococcus epidermidis (MRSE); experiment: as above; type: cell-based
# Summary of the method: as §1
# [6] = system: methicillin-sensitive Staphylococcus aureus (MSSA); experiment: as above; type: cell-based
# Summary of the method: as §1
# [7] = system: Escherichia coli (including ESBLs, non-ESBLs); experiment: as above; type: cell-based
# Summary of the method: as §1
# [8] = system: Enterococcus faecalis (EFA); experiment: as above; type: cell-based
# Summary of the method: as §1
# [9] = system: HCT-116 colorectal cancer cell line; experiment: CCK-8 proliferation inhibition; type: cell-based
# Summary of the method: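 Cells were plated overnight at 2000 cells/well, then compound in culture medium was added at a range of final concentrations. After 72 hours in a CO2 incubator, medium was replaced with 1:10 CCK-8 solution for the read-out.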
# [10] = system: MGC-803 gastric cancer cell line; experiment: CCK-8 proliferation inhibition; type: cell-based; conditions: concentration of 30 μM
# Summary of the method: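 Proliferation was measured with 1:10 diluted CCK-8 after a 72-hour incubation with the inhibitors at various final concentrations, using 1‰ DMSO as the control. Cells were plated at 2000 per well. Culture media contained 10% newborn bovine serum: 1640 for Jurkat and MGC-803, F12 for PC3, DMEM high glucose for MCF-7.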
# [11] = system: BEL-7402 liver cancer cell line; experiment: CCK-8 proliferation inhibition; type: cell-based; conditions: concentration of 30 μM, 72 hours, 30 µM
# Summary of the method: (§2)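 Plating at 2000 cells/well, then incubation overnight at 37° C. Next, a range of compound concentrations for 72 hours (control 1‰ DMSO). Finally, medium decanted and CCK-8 diluted 1:10 added.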
# [12] = system: A549 lung cancer cell line; experiment: CCK-8 proliferation inhibition; type: cell-based; conditions: Homo sapiens, A549, 72 h, concentration of 30 μM
# Summary of the method: as §2
# [13] = strain printed MRSA 14-1 (second line of that name, r23, before MRSE 14-2)
SMILES,MetHb % (n = 3) [2] [%],probability of methemoglobin formation in blood compared with the control drugs LBM415 and GSK1322322 [2],MIC (anti-bacterial activity) ([3]; strain MSSE 14-1) [µg/mL],MIC (anti-bacterial activity) ([3]; strain MSSE 14-2) [µg/mL],MIC (anti-bacterial activity) ([3]; strain MSSE 14-3) [µg/mL],MIC (anti-bacterial activity) ([3]; strain MSSE 14-4) [µg/mL],MIC (anti-bacterial activity) ([4]; strain MRSA 14-1) [µg/mL],MIC (anti-bacterial activity) ([4]; strain MRSA 14-2) [µg/mL],MIC (anti-bacterial activity) ([4]; strain MRSA 14-4) [µg/mL],MIC (anti-bacterial activity) ([4]; strain MRSA 14-5) [µg/mL],"MIC (anti-bacterial activity) [4, 13] [µg/mL]",MIC (anti-bacterial activity) ([5]; strain MRSE 14-2) [µg/mL],MIC (anti-bacterial activity) ([5]; strain MRSE 14-3) [µg/mL],MIC (anti-bacterial activity) ([5]; strain MRSE 14-4) [µg/mL],MIC (anti-bacterial activity) ([6]; strain MSSA 14-1) [µg/mL],MIC (anti-bacterial activity) ([6]; strain MSSA 14-2) [µg/mL],MIC (anti-bacterial activity) ([6]; strain MSSA 14-3) [µg/mL],MIC (anti-bacterial activity) ([6]; strain MSSA 14-4) [µg/mL],MIC (anti-bacterial activity) ([7]; strain ECO+ 14-1) [µg/mL],MIC (anti-bacterial activity) ([7]; strain ECO+ 14-2) [µg/mL],other results
CCCC[C@H](CN(O)C=O)C(=O)N1CC2(CC2)C[C@H]1C(=O)Nc1cc(C(C)(C)C)on1 [Example 3],3.33 ± 0.06,lower probability of methemoglobin formation in blood,0.03,0.125,0.015,0.015,0.06,0.06,< 0.008,0.06,0.03,0.03,0.015,0.03,0.125,0.125,0.25,0.06,1,64,"MIC [1]: < 0.008 µg/mL; MIC (anti-bacterial activity) ([7]; strain ECO− 14-1): 64 µg/mL; MIC (anti-bacterial activity) ([7]; strain ECO− 14-2): 64 µg/mL; MIC (anti-bacterial activity) ([8]; strain EFA 14-1): 0.5 µg/mL; MIC (anti-bacterial activity) ([8]; strain EFA 14-2): 0.5 µg/mL; MIC (anti-bacterial activity) ([8]; strain EFA 14-3): 0.5 µg/mL; MIC (anti-bacterial activity) ([8]; strain EFA 14-5): > 128 µg/mL; inhibition at 30 µM ([9]; Homo sapiens, HCT-116, 72 h, read-out: HCT116 inhibition rate/%): 2%"
CCCC[C@H](CN(O)C=O)C(=O)N1CC2(CC2)C[C@H]1C(=O)Nc1ncc(C)s1 [Example 6],2.25 ± 0.02,lower probability of methemoglobin formation in blood,< 0.008,< 0.008,< 0.008,< 0.008,< 0.008,< 0.008,< 0.008,< 0.008,< 0.008,< 0.008,< 0.008,< 0.008,< 0.008,< 0.008,< 0.008,< 0.008,0.125,32,"MIC ([1]; lowest MIC reached): < 0.008 µg/mL; MIC (anti-bacterial activity) ([7]; strain ECO− 14-1): 32 µg/mL; MIC (anti-bacterial activity) ([7]; strain ECO− 14-2): 32 µg/mL; MIC (anti-bacterial activity) ([8]; strain EFA 14-1): 0.125 µg/mL; MIC (anti-bacterial activity) ([8]; strain EFA 14-2): 0.5 µg/mL; MIC (anti-bacterial activity) ([8]; strain EFA 14-3): 0.5 µg/mL; MIC (anti-bacterial activity) ([8]; strain EFA 14-5): 0.25 µg/mL; inhibition at 30 µM ([10]; Homo sapiens, MGC-803, 72 h): > 50%; Inhibition of proliferation, Gastric cancer MGC-803 ([10]; 72 hours, 30 µM): 66%; Inhibition of proliferation, Liver cancer BEL-7402 [11]: 74%; inhibition at 30 µM [12]: 26%; HCT116 inhibition rate/% ([9]; concentration of 30 μM, 72 hours, CCK-8, 30 µM): 86%"
